PubChem BioAssay (NCI)
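Grown in 96-well plates, cells were treated for 48 hours with each compound at five concentrations. Insufficient inhibition: endpoint recorded as highest concentration tested. Definition used: TGI = concentration required for complete inhibition of growth.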

Experiments:
Assay in all cases: NCI tumour cell line growth inhibition, 48 h
[1] = tested on: A549 NSCLC
[2] = tested on: HCT-116 colon
[3] = tested on: RXF 393 renal
[4] = tested on: DU-145 prostate
[5] = tested on: UACC-257 melanoma
[6] = tested on: MOLT-4 leukemia
[7] = tested on: UO-31 renal
[8] = tested on: SNB-75 CNS
[9] = tested on: OVCAR-4 ovarian
[10] = tested on: KM12 colon
[11] = tested on: BT-549 breast
[12] = tested on: K-562 leukemia
[13] = tested on: SF-295 CNS
[14] = tested on: NCI-H23 lung
[15] = tested on: HCT-15 colon
[16] = tested on: HOP-62 NSCLC
[17] = tested on: M14 melanoma
[18] = tested on: IGROV1 ovarian
[19] = tested on: TK-10 renal
[20] = tested on: MCF7 breast
[21] = tested on: HL-60(TB) leukemia
[22] = tested on: RPMI-8226 leukemia
[23] = tested on: LOX IMVI melanoma
[24] = tested on: EKVX NSCLC
[25] = tested on: ACHN renal
[26] = tested on: SR leukemia
[27] = tested on: OVCAR-3 ovarian
[28] = tested on: SK-OV-3 ovarian
[29] = tested on: HT29 colon
[30] = tested on: NCI/ADR-RES ovarian
[31] = tested on: U251 CNS
[32] = tested on: MDA-MB-231 breast
[33] = tested on: OVCAR-8 ovarian
[34] = tested on: NCI-H460 lung
[35] = tested on: NCI-H226 lung
[36] = tested on: CAKI-1 renal
[37] = tested on: UACC-62 melanoma
[38] = tested on: MDA-N
[39] = tested on: OVCAR-5 ovarian
[40] = tested on: SK-MEL-2 melanoma
[41] = tested on: T-47D breast
[42] = tested on: SF-539 CNS
[43] = tested on: SNB-19 CNS
[44] = tested on: CCRF-CEM leukemia
[45] = tested on: SW-620 colon
[46] = tested on: A498 renal
[47] = tested on: SK-MEL-5 melanoma
[48] = tested on: SK-MEL-28 melanoma
[49] = tested on: SN12C renal
[50] = tested on: HOP-92 NSCLC
[51] = tested on: PC-3 prostate
[52] = tested on: 786-0 renal
[53] = tested on: MDA-MB-435
[54] = tested on: COLO 205 colon
[55] = tested on: NCI-H522 lung
[56] = tested on: SF-268 CNS
[57] = tested on: HCC-2998 colon
[58] = tested on: MALME-3M melanoma

Structure (SMILES): O=C(O)C(CCc1ccccc1)N1C(=O)c2ccccc2C1=O (stereo not given)
- TGI [1]: > 100 µM
- TGI [2]: > 100 µM
- TGI [3]: > 100 µM
- TGI [4]: > 100 µM
- TGI [5]: > 100 µM
- TGI [6]: > 100 µM
- TGI [7]: > 100 µM
- TGI [8]: > 100 µM
- TGI [9]: > 100 µM
- TGI [10]: > 100 µM
- TGI [11]: > 100 µM
- TGI [12]: > 100 µM
- TGI [13]: > 100 µM
- TGI [14]: > 100 µM
- TGI [15]: > 100 µM
- TGI [16]: > 100 µM
- TGI [17]: > 100 µM
- TGI [18]: > 100 µM
- TGI [19]: > 100 µM
- TGI [20]: > 100 µM
- TGI [21]: > 100 µM
- TGI [22]: > 100 µM
- TGI [23]: > 100 µM
- TGI [24]: > 100 µM
- TGI [25]: > 100 µM
- TGI [26]: > 100 µM
- TGI [27]: > 100 µM
- TGI [28]: > 100 µM
- TGI [29]: > 100 µM
- TGI [30]: > 100 µM
- TGI [31]: > 100 µM
- TGI [32]: > 100 µM
- TGI [33]: > 100 µM
- TGI [34]: > 100 µM
- TGI [35]: > 100 µM
- TGI [36]: > 100 µM
- TGI [37]: > 100 µM
- TGI [38]: > 100 µM
- TGI [39]: > 100 µM
- TGI [40]: > 100 µM
- TGI [41]: > 100 µM
- TGI [42]: > 100 µM
- TGI [43]: > 100 µM
- TGI [44]: > 100 µM
- TGI [45]: > 100 µM
- TGI [46]: > 100 µM
- TGI [47]: > 100 µM
- TGI [48]: > 100 µM
- TGI [49]: > 100 µM
- TGI [50]: > 100 µM
- TGI [51]: > 100 µM
- TGI [52]: > 100 µM
- TGI [53]: > 100 µM
- TGI [54]: > 100 µM

Structure (SMILES): CCN(CC)c1ccc2cc(-c3nc4ccccc4n3C)c(=O)oc2c1
- TGI [1]: > 100 µM
- TGI [2]: > 100 µM
- TGI [3]: 63.1 µM
- TGI [4]: > 24.2 µM
- TGI [5]: > 100 µM
- TGI [6]: > 100 µM
- TGI [55]: 0.661 µM
- TGI [7]: > 100 µM
- TGI [9]: > 100 µM
- TGI [10]: > 100 µM
- TGI [11]: 0.861 µM
- TGI [12]: > 100 µM
- TGI [13]: > 100 µM
- TGI [14]: 29.3 µM
- TGI [15]: > 100 µM
- TGI [16]: 29.8 µM
- TGI [17]: > 100 µM
- TGI [18]: 4.79 µM
- TGI [19]: > 100 µM
- TGI [56]: > 100 µM
- TGI [20]: > 100 µM
- TGI [21]: > 100 µM
- TGI [22]: > 31.6 µM
- TGI [23]: > 100 µM
- TGI [25]: > 100 µM
- TGI [26]: > 100 µM
- TGI [28]: 43.6 µM
- TGI [29]: 11 µM
- TGI [30]: 0.727 µM
- TGI [31]: > 41.9 µM
- TGI [32]: > 54.3 µM
- TGI [33]: > 100 µM
- TGI [34]: 4.36 µM
- TGI [35]: 1.46 µM
- TGI [36]: > 100 µM
- TGI [38]: 0.135 µM
- TGI [39]: > 100 µM
- TGI [40]: 0.68 µM
- TGI [41]: > 100 µM
- TGI [42]: 0.545 µM
- TGI [43]: > 100 µM
- TGI [44]: > 100 µM
- TGI [45]: > 100 µM
- TGI [46]: 0.187 µM
- TGI [47]: 3.42 µM
- TGI [49]: > 100 µM
- TGI [50]: > 100 µM
- TGI [52]: > 48.7 µM
- TGI [53]: 0.334 µM

Structure (SMILES): O=C(CCC1CCCCC1)NCc1ccc(C(=O)O)cc1
- TGI [1]: > 100 µM
- TGI [2]: > 100 µM
- TGI [3]: > 100 µM
- TGI [4]: > 100 µM
- TGI [5]: > 100 µM
- TGI [6]: > 100 µM
- TGI [55]: > 100 µM
- TGI [7]: > 100 µM
- TGI [8]: > 100 µM
- TGI [9]: > 100 µM
- TGI [10]: > 100 µM
- TGI [11]: > 100 µM
- TGI [57]: > 100 µM
- TGI [12]: > 100 µM
- TGI [13]: > 100 µM
- TGI [14]: > 100 µM
- TGI [15]: > 100 µM
- TGI [16]: > 100 µM
- TGI [17]: > 100 µM
- TGI [18]: > 100 µM
- TGI [19]: > 100 µM
- TGI [56]: > 100 µM
- TGI [20]: > 100 µM
- TGI [22]: > 100 µM
- TGI [23]: > 100 µM
- TGI [24]: > 100 µM
- TGI [25]: > 100 µM
- TGI [26]: > 100 µM
- TGI [27]: > 100 µM
- TGI [28]: > 100 µM
- TGI [29]: > 100 µM
- TGI [30]: > 100 µM
- TGI [31]: > 100 µM
- TGI [32]: > 100 µM
- TGI [33]: > 100 µM
- TGI [34]: > 100 µM
- TGI [35]: > 100 µM
- TGI [36]: > 100 µM
- TGI [37]: > 100 µM
- TGI [38]: > 100 µM
- TGI [39]: > 100 µM
- TGI [40]: > 100 µM
- TGI [58]: > 100 µM
- TGI [41]: > 100 µM
- TGI [42]: > 100 µM
- TGI [43]: > 100 µM
- TGI [44]: > 100 µM
- TGI [45]: > 100 µM
- TGI [46]: > 100 µM
- TGI [47]: > 100 µM
- TGI [48]: > 100 µM
- TGI [49]: > 100 µM
- TGI [50]: > 100 µM
- TGI [51]: > 100 µM
- TGI [52]: > 100 µM
- TGI [53]: > 100 µM
- TGI [54]: > 100 µM
